{
  "source": "patent US20050182065A1",
  "about": "“Method of stimulating hair growth” (priority 2004, published 2005)",
  "key": {"C3H/HeN mice [1]": {"test_system": "C3H/HeN mice", "experiment": "Telogen Conversion Assay", "assay_type": "in vivo", "settings": "for Results: number of days following initiation of treatment when hair growth appeared in 50% of the mice: topical once daily for 5 days, propylene glycol 30%/ethanol 70%", "text": "The Telogen Conversion Assay measures the potential of a compound (hereinafter referred to as the “test compound”) to convert mice in the resting stage of the hair growth cycle (“telogen”) to the active stage of the hair growth cycle (“anagen”). This assay takes advantage of the fact that the fur (i.e. hair) of 40-day-old C3H/HeN mice is in the telogen phase. This phase usually continues until about 75 days of age, at which point, anagen naturally occurs in these animals. In this assay, selected areas of 40-day-old mice (approximate) are shaved, contacted with a test agent, or a control, and the difference in the rate of hair growth is measured (i.e. induction of the anagen phase). The first sign of anagen is the darkening of skin color as melanocytes in the follicles start to synthesize melanin, in preparation for the production of pigmented hairs.\nFemale C3H/HeN mice, 7 weeks old (Charles River Laboratories, Raleigh, N.C.) were used for the study. Fur was clipped from the dorsal region of the mice prior to initiation of the study. Only mice with pink skin, a visual indication of the telogen phase, were selected for inclusion in the study.\nTest compounds (from Table A) were dissolved in a vehicle consisting of propylene glycol (30%) and ethanol (70%). A test compound dissolved in vehicle, or a vehicle control (30/70 propylene glycol/ethanol, unless otherwise specified) was applied topically to the clipped dorsal region of the mice in each test group (7-10 mice) in a volume of 20 μl/cm^2. Treatments were applied once daily for 5 days.\nThe treatment area was observed and graded for signs of hair growth. The hair growth response was quantified by recording, for each animal, the day on which signs of hair growth first appeared over the treated area. The first sign of anagen was the darkening of skin color as melanocytes in the follicles started to synthesize melanin. The response time was measured as the number of days between initiation of treatment and when hair growth was present in 50% of the mice in a given group.\nThe results are reported as the number of days following initiation of treatment when hair growth appeared in 50% of the mice in a given group."}, "C3H/HeN mice [2]": {"test_system": "C3H/HeN mice", "experiment": "Telogen Conversion Assay", "assay_type": "in vivo", "settings": "Experiment 8; for Results: number of days following initiation of treatment when hair growth appeared in 50% of the mice: topical once daily for 5 days, solvent polyethylene glycol 30 v/v %, ethanol 30 v/v %, transcutanol 40 v/v %, vehicle 28; for Induction of anagen (conclusion in words): transcutol, ethanol, polypropylene glycol vehicle"}},
  "data": [
    {"smiles": "Cn1nc(O[C@@H]2c3cc(S(=O)(=O)c4ccc(O)cc4)ccc3OC(C)(C)[C@@]2(C)O)ccc1=O", "note": "[Compound #6]", "values": [
      {"measurement": "Results: number of days following initiation of treatment when hair growth appeared in 50% of the mice", "setting": "C3H/HeN mice [1]; Experiment 2, 0.3 w/v %, vehicle 25", "value": 18, "unit": "days"},
      {"measurement": "Results: number of days following initiation of treatment when hair growth appeared in 50% of the mice", "setting": "C3H/HeN mice [1]; Experiment 2, 1.0 w/v %, vehicle 25", "value": 30, "unit": "days"},
      {"measurement": "Results: number of days following initiation of treatment when hair growth appeared in 50% of the mice", "setting": "C3H/HeN mice [1]; Experiment 5, 0.03 w/v %, vehicle >35", "value": ">35", "unit": "days"},
      {"measurement": "Results: number of days following initiation of treatment when hair growth appeared in 50% of the mice", "setting": "C3H/HeN mice [1]; Experiment 5, 0.1 w/v %, vehicle >35", "value": ">35", "unit": "days"},
      {"measurement": "Results: number of days following initiation of treatment when hair growth appeared in 50% of the mice", "setting": "C3H/HeN mice [1]; Experiment 5, 0.3 w/v %, vehicle >35", "value": 23, "unit": "days"},
      {"measurement": "Induction of anagen (conclusion in words)", "setting": "C3H/HeN mice [1]; Experiment 5, terminated early", "value": "induced anagen at the highest concentration tested (0.3%)"},
      {"measurement": "Results: number of days following initiation of treatment when hair growth appeared in 50% of the mice", "setting": "C3H/HeN mice [1]; Experiment 6, 0.003 w/v %, vehicle >35", "value": ">35", "unit": "days"},
      {"measurement": "Results: number of days following initiation of treatment when hair growth appeared in 50% of the mice", "setting": "C3H/HeN mice [1]; Experiment 6, 0.03 w/v %, vehicle >35", "value": ">35", "unit": "days"},
      {"measurement": "Results: number of days following initiation of treatment when hair growth appeared in 50% of the mice", "setting": "C3H/HeN mice [1]; Experiment 6, 0.3 w/v %, vehicle >35", "value": ">35", "unit": "days"},
      {"measurement": "Induction of anagen (conclusion in words)", "setting": "C3H/HeN mice [1]; Experiment 6, terminated early, up to day 35", "value": "no effect was seen"},
      {"measurement": "Results: number of days following initiation of treatment when hair growth appeared in 50% of the mice", "setting": "C3H/HeN mice [1]; Experiment 7, 0.003 w/v %, vehicle 29", "value": 31, "unit": "days"},
      {"measurement": "Results: number of days following initiation of treatment when hair growth appeared in 50% of the mice", "setting": "C3H/HeN mice [1]; Experiment 7, 0.03 w/v %, vehicle 29", "value": ">33", "unit": "days"},
      {"measurement": "Results: number of days following initiation of treatment when hair growth appeared in 50% of the mice", "setting": "C3H/HeN mice [1]; Experiment 7, 0.3 w/v %, vehicle 29", "value": ">33", "unit": "days"},
      {"measurement": "Induction of anagen (conclusion in words)", "setting": "C3H/HeN mice [1]; Experiment 7, proceeded to completion", "value": "did not induce anagen prior to the control group"},
      {"measurement": "Results: number of days following initiation of treatment when hair growth appeared in 50% of the mice", "setting": "C3H/HeN mice [1]; Experiment 15, 0.03 w/v %, vehicle >30", "value": ">30", "unit": "days"},
      {"measurement": "Results: number of days following initiation of treatment when hair growth appeared in 50% of the mice", "setting": "C3H/HeN mice [1]; Experiment 15, 0.3 w/v %, vehicle >30", "value": 14, "unit": "days"},
      {"measurement": "Results: number of days following initiation of treatment when hair growth appeared in 50% of the mice", "setting": "C3H/HeN mice [1]; Experiment 15, 1.0 w/v %, vehicle >30", "value": ">30", "unit": "days"},
      {"measurement": "Induction of anagen (conclusion in words)", "setting": "C3H/HeN mice [1]; Experiment 15, terminated early", "value": "induced anagen when applied at a concentration of 0.3 w/v %"}
    ]},
    {"smiles": "CCOC(=O)CCCn1nnnc1-c1ccc2c(c1)[C@@H](Oc1ccnc(O)c1)[C@](C)(O)C(C)(C)O2", "note": "[Compound #5]", "values": [
      {"measurement": "Results: number of days following initiation of treatment when hair growth appeared in 50% of the mice", "setting": "C3H/HeN mice [2]; 0.3 w/v %", "value": ">35", "unit": "days"},
      {"measurement": "Results: number of days following initiation of treatment when hair growth appeared in 50% of the mice", "setting": "C3H/HeN mice [2]; 1.0 w/v %", "value": ">35", "unit": "days"},
      {"measurement": "Induction of anagen (conclusion in words)", "setting": "C3H/HeN mice [2]", "value": "inactive"}
    ]},
    {"smiles": "CCOc1c(N[C@@H]2c3cc(S(=O)(=O)c4cccc(O)c4)ccc3OC(C)(C)[C@@]2(C)O)c(=O)c1=O", "note": "[Compound #3]", "values": [
      {"measurement": "Results: number of days following initiation of treatment when hair growth appeared in 50% of the mice", "setting": "C3H/HeN mice [2]; 0.3 w/v %", "value": ">35", "unit": "days"},
      {"measurement": "Results: number of days following initiation of treatment when hair growth appeared in 50% of the mice", "setting": "C3H/HeN mice [2]; 1.0 w/v %", "value": ">35", "unit": "days"},
      {"measurement": "Induction of anagen (conclusion in words)", "setting": "C3H/HeN mice [2]", "value": "inactive"}
    ]},
    {"smiles": "CCOC(=O)CCCn1nnnc1-c1ccc2c(c1)[C@H](Oc1ccc(O)nn1)[C@@](C)(O)C(C)(C)O2", "note": "[Compound #2]", "values": [
      {"measurement": "Results: number of days following initiation of treatment when hair growth appeared in 50% of the mice", "setting": "C3H/HeN mice [1]; Experiment 3, 0.1 w/v %, terminated early", "value": ">35", "unit": "days"},
      {"measurement": "Results: number of days following initiation of treatment when hair growth appeared in 50% of the mice", "setting": "C3H/HeN mice [1]; Experiment 3, 0.3 w/v %, terminated early", "value": ">35", "unit": "days"},
      {"measurement": "Results: number of days following initiation of treatment when hair growth appeared in 50% of the mice", "setting": "C3H/HeN mice [1]; Experiment 3, 1.0 w/v %, terminated early", "value": ">35", "unit": "days"},
      {"measurement": "Results: number of days following initiation of treatment when hair growth appeared in 50% of the mice", "setting": "C3H/HeN mice [1]; Experiment 3, 2.5 w/v %, terminated early", "value": ">35", "unit": "days"}
    ]},
    {"smiles": "Cn1nc(OC2c3cc(S(=O)(=O)c4ccc(O)cc4)ccc3OC(C)(C)C2(C)O)c2ccccc2c1=O", "note": "(stereo not shown) [Compound #4]", "values": [
      {"measurement": "Results: number of days following initiation of treatment when hair growth appeared in 50% of the mice", "setting": "C3H/HeN mice [2]; 0.3 w/v %", "value": ">35", "unit": "days"},
      {"measurement": "Results: number of days following initiation of treatment when hair growth appeared in 50% of the mice", "setting": "C3H/HeN mice [2]; 1.0 w/v %", "value": ">35", "unit": "days"},
      {"measurement": "Induction of anagen (conclusion in words)", "setting": "C3H/HeN mice [2]", "value": "inactive"}
    ]}
  ]
}
